Measured values as given in patent US5556744A, “Methods and compositions for diagnosing and treating certain HIV infected patients” (The Trustees of the University of Pennsylvania, priority 1994, dated 1996).

What was measured:
[1] = test system: HIV-1 infected cells (MN isolate); assay: Anti-syncytial assay (inhibition of HIV-1 MN syncytium formation, SupT1 target cells); format: cell-based; details: HIV-1 MN, SupT1 cells, 3 days; vs normal human serum
Excerpt: (§1) The H9 cell line (a cutaneous T lymphoma line) infected by HIV-IIIB [ATCC CRL 8543] was used in the neutralization assay. The H9 cell line infected by HIV-MN was used in the anti-syncytial assays. SupT1 and Hut78 cells were used as the target cell lines for the anti-syncytial and neutralization assays. All cell lines were obtained from the National Institutes of Health AIDS Repository (Bethesda, Md.).
To analyze the effect of the maternal serum samples on HIV-1 fusion, SupT1 cells were used as target cells in an anti-syncytial assay. Dilutions of the different maternal serum samples were made in 96 well plates in RPMI 1640 media containing 10% fetal calf serum at final dilutions of 1:4, 1:8, 1:16, 1:32, 1:64, 1:128, 1:256 or 1:512. HIV-1 infected cells (MN isolate) were then plated in the wells at a density of approximately 10^4 cells per well. SupT1 target cells were then added at 5×10^5 /well and the number of syncytia are determined after 3 days of incubation. Inhibition of syncytium formation by a serum sample was considered significant if the dilution which yielded a 50% reduction in the number of syncytia when compared to control was greater than 1:32. The average number of syncytia in the control (normal human serum) wells at the above dilutions were: 45.5, 48.5, 44, 48, 48.5, 41.5, 42 and 45.5 respectively.

[2] = test system: gp120 peptides; assay: Number of gp120 peptides bound by maternal sera (Examples 3, 4); format: binding, HIV-1 IIIB; details: Table 8
Experimental: (§2) Radioimmunoassay (RIA) and enzyme-linked immunosorbent assay (ELISA) were performed by standard methodologies [E. Engvall, Meth. Immunol., 70:419-439 (1980); S. K. Pierce et al, J. Exp. Med., 144:1254-1262 (1976)]. Peptides were dissolved in 0.05M carbonate-bicarbonate buffer (pH 9.6) at a concentration of 10 μg/ml. Fifty μl (500 ng) of the peptides were immobilized in 96 well polyvinylchloride plates (Dynatech Laboratories, Inc.) overnight at 4° C. Plates were washed and non-specific sites were blocked with PBS containing 1% BSA overnight at 4° C.
(§3) Dilutions of HIV positive maternal sera were made in blocking buffer at dilutions of 1:50 and 1:500 and incubated in peptide coated plates overnight at 4° C. Plates were washed with PBS and incubated with 75,000 cpm of ^125 I-labelled goat anti-human IgG. The antibody was iodinated by a chloramine T method [W. V. Williams et al, Proc. Natl. Acad. Sci. USA, 85:6488-6492 (1988)]. Plates were washed, dried and counted in a gamma counter to measure specific binding. Normal human serum (i.e., HIV seronegative) was used as a control.
(§4) Alternatively, ELISA assays were performed in polystyrene plates (Dynatech Laboratories, Inc) in which 0.05% Tween 20 (Sigma Chemical Co.) was included in the washing, blocking and dilution buffers. The secondary antibody used was goat […] Ig conjugated to horseradish peroxidase (HRP) (Sigma Chemical Co). The substrate used for color development was 3,3',5,5' tetramethyl-benzidine dihydrochloride (TMB) (Sigma Chemical Co). Absorbance of samples was measured in a Dynatech MR5000 (Dynatech Laboratories, Inc.) plate reader and expressed as an optical density at wavelength of 450 nm (OD450).
(§5) The results of the binding assays are represented in Tables 3, 4, 6 and 7. The following key is used for the designation of specific binding of the maternal sera samples to the peptides: The minus sign, -, is equivalent to the specific OD450 or cpm of sera sample binding to peptide divided by the specific OD450 or cpm of NHS sample binding to peptide, which value is less than 2. The plus sign, +, is equivalent to the specific OD450 or cpm of sera sample binding to peptide divided by the specific OD450 or cpm of NHS sample binding to peptide, which value is between 2 to 3. The double plus sign, ++, is equivalent to the specific OD450 or cpm of sera sample binding to peptide divided by the specific OD450 or cpm of NHS sample binding to peptide, which value is greater than 3.
(§6) Comparisons of number of peptides which bound maternal serum samples were made between the transmission group and the nontransmission group. The data was analyzed using the unpaired student's test. For the determination of differences in the binding of specific peptides between transmission and non-transmission groups, the Spearman's rank-order correlation test was performed.

[3] = test system: HIV-IIIB viral isolate; assay: Neutralization assay (HIV-IIIB, Hut-78 cells, p24 antigen ELISA); format: cell-based, HIV-1 IIIB; parameters: key to Neutralization Activity, Dilution Resulting in ≥50% Inhibition: --: (-) indicates negative (i.e. a dilution of <1:10); details: HIV-IIIB, Hut-78 cells, p24 OD450 after 6 days; vs normal human serum
Experimental: as §1
In a neutralization assay, 20 μl of maternal sera samples was placed in 96 round bottom well plates at final dilutions of 1:10, 1:90 and 1:810 in RPMI. The HIV-IIIB viral isolate was diluted in RPMI to a TCID50 of 100 units/ml. Twenty μl of the virus solution was placed in each well and the plate was incubated for one hour at 4° C. Hut-78 cells were incubated with 2 μg/ml of polybrene for one hour at 37° C. in a CO2 incubator. The HUT-78 cells were washed and resuspended in fresh RPMI to a final concentration of 4×10^6 cells/ml. Ten μl of the cell suspension was added to each well and the plate was incubated for one hour in a 37° C., CO2 incubator.
Fifteen μl of the serum/cell/virus solution was aliquoted to a new plate containing 200 μl of fresh RPMI and incubated for 6 days. After 6 days, 100 μl was used to analyze for p24 antigen. The p24 capture ELISA assay kit (Coulter Corporation, Hialeah, Fla.) was used to perform the measurements.
Further, sera samples at the same dilutions as described above were tested for residual p24 core protein or antibody to insure the results were due only to viral infection.

[4] = test system: gp41 peptides; assay: Number of gp41 peptides bound by maternal sera (Examples 3, 4); format: binding, HIV-1 IIIB; details: Table 8
Experimental: as §2, §3, §4, §5, §6

Substance	Anti-Syncytial Activity, Dilution Resulting in ≥50% Inhibition [1]	Number of gp120 Peptides Bound (+/++) [2]	Neutralization Activity, Dilution Resulting in ≥50% Inhibition [3]	Number of gp41 Peptides Bound (+ or ++) [4]
17: gp120 peptide, amino acids 267-282, SEQ ID NO:111 (EEEVVIRSVNFTDNAK) [Peptide 17]	1:256	5	1:810	4
HP7: gp120 peptide, amino acids 107-121, SEQ ID NO:103 (DIISLWDQSLKPCVK)	1:64	3	1:810	3
HP1: gp120 peptide, amino acids 93-107, SEQ ID NO:99 (FNMWKNDMVEQMHED)	1:64	6	--	6
HP2: gp120 peptide, amino acids 98-112, SEQ ID NO:100 (NDMVEQMHEDIISLW)	1:32	4	--	2
HP9: gp120 peptide, amino acids 141-155, SEQ ID NO:104 (NSSSGRMIMEKGEIK)	1:256	3	1:810	1
HP3: gp120 peptide, amino acids 102-116, SEQ ID NO:101 (EQMHEDIISLWDQSL)	1:256	4	1:90	2
HP5: gp120 peptide, amino acids 105-117, SEQ ID NO:102	1:128	4	--	0
HP10: gp120 peptide, amino acids 157-171, SEQ ID NO:105 (CSFNISTSIRGKVQK)	1:256	2	--	0
